Measurements: patent US11040981B2, “Pyrrolotriazine compounds and methods of inhibiting TAM kinases” (Syros Pharmaceuticals, Inc., priority 2017, dated 2021)

Legend:
TYRO3 = molecular target: T1, TYRO3 (Homo sapiens, UniProt Q06418); experiment: TR-FRET kinase activity assay, TYRO3; type: biochemical; conditions: ATP at Km, 60 minutes
T1 sequence (Q06418 41-890): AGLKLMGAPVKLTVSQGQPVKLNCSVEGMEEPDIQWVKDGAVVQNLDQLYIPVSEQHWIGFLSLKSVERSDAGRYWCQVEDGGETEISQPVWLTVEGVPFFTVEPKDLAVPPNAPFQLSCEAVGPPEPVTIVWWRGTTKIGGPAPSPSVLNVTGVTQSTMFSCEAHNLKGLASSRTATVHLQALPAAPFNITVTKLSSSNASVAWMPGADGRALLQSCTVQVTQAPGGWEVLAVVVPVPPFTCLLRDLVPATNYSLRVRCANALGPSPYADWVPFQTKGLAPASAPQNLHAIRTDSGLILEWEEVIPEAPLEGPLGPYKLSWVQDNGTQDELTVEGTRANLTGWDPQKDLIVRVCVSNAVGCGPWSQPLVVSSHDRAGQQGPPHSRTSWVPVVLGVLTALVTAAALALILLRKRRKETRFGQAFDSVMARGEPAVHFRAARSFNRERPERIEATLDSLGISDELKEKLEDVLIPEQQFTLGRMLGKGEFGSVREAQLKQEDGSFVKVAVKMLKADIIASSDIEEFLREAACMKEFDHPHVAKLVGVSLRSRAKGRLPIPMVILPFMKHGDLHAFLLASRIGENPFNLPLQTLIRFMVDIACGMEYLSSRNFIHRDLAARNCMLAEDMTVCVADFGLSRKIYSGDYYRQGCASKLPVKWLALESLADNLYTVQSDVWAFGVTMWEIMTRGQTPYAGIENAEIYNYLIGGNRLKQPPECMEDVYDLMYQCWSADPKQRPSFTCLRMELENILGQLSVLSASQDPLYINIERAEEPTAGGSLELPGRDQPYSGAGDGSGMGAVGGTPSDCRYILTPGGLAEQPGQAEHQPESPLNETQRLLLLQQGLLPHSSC
Procedure, shortened: (§1)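 Enzyme, fluorescent peptide substrate and compound were mixed, and the reaction was started with ATP at each kinase's Km, in 50 mM HEPES pH 7.5, 10 mM MgCl2, 1 mM EGTA, 0.01% Brij 35, 1 mM DTT at RT. After 60 minutes EDTA quench, Eu-labelled phospho-specific antibody was added for 30 minutes, and IC50 was derived from TR-FRET signal loss.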

MERTK = molecular target: T2, MERTK (Homo sapiens, UniProt Q12866); experiment: TR-FRET kinase activity assay, MERTK; type: biochemical; conditions: for IC50: TR-FRET activity assay, ATP at Km, 60 minutes, read-out: Mer IC50
T2 sequence (Q12866 21-999): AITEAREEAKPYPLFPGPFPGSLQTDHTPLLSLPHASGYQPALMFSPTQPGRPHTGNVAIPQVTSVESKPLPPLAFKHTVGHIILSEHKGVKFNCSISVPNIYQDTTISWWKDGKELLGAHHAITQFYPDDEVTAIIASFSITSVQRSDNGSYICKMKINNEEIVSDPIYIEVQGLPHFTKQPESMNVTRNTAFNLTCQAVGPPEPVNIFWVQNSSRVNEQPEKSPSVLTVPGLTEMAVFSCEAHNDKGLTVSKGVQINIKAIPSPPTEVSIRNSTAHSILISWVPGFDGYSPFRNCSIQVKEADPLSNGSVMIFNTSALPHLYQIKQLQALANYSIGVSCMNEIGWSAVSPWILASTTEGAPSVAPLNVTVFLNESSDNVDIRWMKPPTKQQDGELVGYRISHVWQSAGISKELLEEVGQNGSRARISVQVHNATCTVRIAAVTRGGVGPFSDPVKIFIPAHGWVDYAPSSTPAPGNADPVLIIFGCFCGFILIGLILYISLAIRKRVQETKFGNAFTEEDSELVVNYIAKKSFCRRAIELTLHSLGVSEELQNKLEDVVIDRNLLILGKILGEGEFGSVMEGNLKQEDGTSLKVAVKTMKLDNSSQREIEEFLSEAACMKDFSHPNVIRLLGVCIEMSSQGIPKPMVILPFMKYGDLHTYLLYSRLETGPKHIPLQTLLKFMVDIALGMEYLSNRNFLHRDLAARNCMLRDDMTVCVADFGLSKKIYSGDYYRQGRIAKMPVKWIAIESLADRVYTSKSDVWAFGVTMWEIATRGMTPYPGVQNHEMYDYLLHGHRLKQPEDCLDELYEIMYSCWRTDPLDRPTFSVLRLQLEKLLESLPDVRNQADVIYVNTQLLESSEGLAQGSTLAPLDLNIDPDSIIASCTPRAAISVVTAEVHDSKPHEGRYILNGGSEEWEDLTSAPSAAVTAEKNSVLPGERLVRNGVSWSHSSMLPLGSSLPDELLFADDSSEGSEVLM
Procedure, shortened: as §1

[1] = ratio of Mer to FLT3: FLT3 IC50/Mer IC50
[2] = ratio calculated as FLT3 IC50/Mer IC50

IC50 (TYRO3) | IC50 (MERTK) | FLT3/Mer ratio (FLT3 IC50/Mer IC50) (MERTK; [2]) | SMILES | FLT3/Mer ratio (FLT3 IC50/Mer IC50) (MERTK; [1])
≤ 100 nM | ≤ 100 nM | – | COC[C@H](C)Nc1ncc2c(-c3ccnc(C)c3)cc([C@H]3CC[C@@H](O)CC3)n2n1 [Compound 183] | +++ (“+++” represents a ratio of >100)
≤ 100 nM | ≤ 100 nM | – | COC[C@H](C)Nc1ncc2c(-c3ccc(C4(N5CCOCC5)CC4)cc3)cc([C@H]3CC[C@H](O)CC3)n2n1 [Compound 184] | ++ (“++” represents a ratio of between 10 and 100)
≤ 100 nM | ≤ 100 nM | +++ (“+++” represents a ratio of >100) | COC[C@H](C)Nc1ncc2c(-c3cnn(Cc4nnc(C)s4)c3)cc([C@H]3CC[C@H](O)CC3)n2n1 [Compound 596] | –
≤ 100 nM | ≤ 100 nM | +++ (“+++” represents a ratio of >100) | C[C@@H](COC(F)F)Nc1ncc2c(-c3ccnc(N4CCO[C@@H](C(C)(C)O)C4)c3)cc([C@H]3CC[C@H](O)CC3)n2n1 [Compound 597] | –
≤ 100 nM | ≤ 100 nM | +++ (“+++” represents a ratio of >100) | C[C@@H](COC(F)F)Nc1ncc2c(-c3ccnc(N4CCOC(C(C)(C)O)C4)c3)cc([C@H]3CC[C@H](O)CC3)n2n1 (stereo partly drawn) [Compound 598] | –
≤ 100 nM | ≤ 100 nM | +++ (“+++” represents a ratio of >100) | COC[C@H](C)Nc1ncc2c(-c3cnn(C(C)(C)c4nnc(C(F)F)o4)c3)cc([C@H]3CC[C@H](O)CC3)n2n1 [Compound 599] | –
≤ 100 nM | ≤ 100 nM | +++ (“+++” represents a ratio of >100) | COC[C@H](C)Nc1ncc2c(-c3cnn(C(C)(C)c4nnc(C(C)C)o4)c3)cc([C@H]3CC[C@H](O)CC3)n2n1 [Compound 600] | –
≤ 100 nM | ≤ 100 nM | +++ (“+++” represents a ratio of >100) | COC[C@H](C)Nc1ncc2c(-c3cnn(C(C)(C)c4nnc([C@@H]5CCCO5)o4)c3)cc([C@H]3CC[C@H](O)CC3)n2n1 [Compound 601] | –
≤ 100 nM | ≤ 100 nM | +++ (“+++” represents a ratio of >100) | COC[C@H](C)Nc1ncc2c(-c3cnn(C(C)(C)c4nnc([C@H]5CCCO5)o4)c3)cc([C@H]3CC[C@H](O)CC3)n2n1 [Compound 602] | –
≤ 100 nM | ≤ 100 nM | +++ (“+++” represents a ratio of >100) | COC[C@H](C)Nc1ncc2c(-c3cnn(C(C)(C)c4nnc(C(F)(F)F)o4)c3)cc([C@H]3CC[C@H](O)CC3)n2n1 [Compound 603] | –
≤ 100 nM | ≤ 100 nM | +++ (“+++” represents a ratio of >100) | COC[C@H](C)Nc1ncc2c(-c3cnn(C(C)(C)c4nnco4)c3)cc([C@H]3CC[C@H](O)CC3)n2n1 [Compound 604] | –
≤ 100 nM | ≤ 100 nM | +++ (“+++” represents a ratio of >100) | COC[C@H](C)Nc1ncc2c(-c3ccnc(N4CCC(C)(O)CC4)c3)cc([C@H]3CC[C@H](O)CC3)n2n1 [Compound 605] | –

Second part, the compound before the results:

SMILES | IC50 (TYRO3) | IC50 (MERTK) | FLT3/Mer ratio (FLT3 IC50/Mer IC50) (MERTK; [2]) | FLT3/Mer ratio (FLT3 IC50/Mer IC50) (MERTK; [1])
COC[C@H](C)Nc1ncc2c(-c3cnccc3C)cc([C@H]3CC[C@H](O)CC3)n2n1 [Compound 168] | 100 to 1000 nM | ≤ 100 nM | – | +++ (“+++” represents a ratio of >100)
COC[C@H](C)Nc1ncc2c(-c3ccc(C#N)c(F)c3)cc([C@H]3CC[C@H](O)CC3)n2n1 [Compound 169] | ≤ 100 nM | ≤ 100 nM | – | +++ (“+++” represents a ratio of >100)
COC[C@H](C)Nc1ncc2c(C3=CC4CCC(C3)N4)cc([C@H]3CC[C@H](O)CC3)n2n1 (stereo partly drawn) [Compound 170] | ≤ 100 nM | ≤ 100 nM | – | +++ (“+++” represents a ratio of >100)
COC[C@H](C)Nc1ncc2c(-c3ccc(C4(C(=O)N5CCOCC5)CC4)cc3)cc([C@H]3CC[C@H](O)CC3)n2n1 [Compound 171] | ≤ 100 nM | ≤ 100 nM | – | ++ (“++” represents a ratio of between 10 and 100)
COCC(C)Nc1ncc2c(-c3ccc(C4(C(=O)N5CCS(=O)(=O)CC5)CC4)cc3)cc(C3CCC(O)CC3)n2n1 (stereo not drawn) [Compound 172] | ≤ 100 nM | ≤ 100 nM | – | ++ (“++” represents a ratio of between 10 and 100)
COC[C@H](C)Nc1ncc2c(-c3ccc(C4(C(=O)O)CC4)cc3)cc([C@H]3CC[C@H](O)CC3)n2n1 [Compound 173] | ≤ 100 nM | ≤ 100 nM | – | +++ (“+++” represents a ratio of >100)
COC[C@H](C)Nc1ncc2c(-c3cnn(CC(=O)NS(C)(=O)=O)c3)cc([C@H]3CC[C@H](O)CC3)n2n1 [Compound 174] | ≤ 100 nM | ≤ 100 nM | – | +++ (“+++” represents a ratio of >100)
COC[C@H](C)N(C)c1ncc2c(-c3ccnc(C)c3)cc([C@H]3CC[C@H](O)CC3)n2n1 [Compound 175, (trans)-4-(2-(((S)-1-methoxypropan-2-yl)(methyl)amino)-5-(2-methylpyridin-4-yl)pyrrolo[2,1-f][1,2,4]triazin-7-yl)cyclohexanol] | 1000 to 10000 nM | 100 to 1000 nM | – | ++ (“++” represents a ratio of between 10 and 100)
COC[C@H](C)N(C)c1ncc2c(-c3ccnc(C)c3)cc([C@H]3CC[C@H](OC)CC3)n2n1 [Compound 176, 7-((trans)-4-methoxycyclohexyl)-N-((S)-1-methoxypropan-2-yl)-N-methyl-5-(2-methylpyridin-4-yl)pyrrolo[2,1-f][1,2,4]triazin-2-amine] | 1000 to 10000 nM | 1000 to 10000 nM | – | + (“+” represents a ratio of >2.0 and <10)
COC[C@H](C)Nc1ncc2c(N3CCCC3=O)cc([C@H]3CC[C@H](O)CC3)n2n1 [Compound 177] | 100 to 1000 nM | ≤ 100 nM | – | +++ (“+++” represents a ratio of >100)
COC[C@H](C)Nc1ncc2c(N3CC4(COC4)CC3=O)cc([C@H]3CC[C@H](O)CC3)n2n1 [Compound 178] | 100 to 1000 nM | ≤ 100 nM | – | +++ (“+++” represents a ratio of >100)
COC[C@H](C)Nc1ncc2c(-c3cccc(CN4CCCC4)c3)cc([C@H]3CC[C@H](O)CC3)n2n1 [Compound 179] | ≤ 100 nM | ≤ 100 nM | – | +++ (“+++” represents a ratio of >100)
COCC(C)Nc1ncc2c(-c3ccc(C(C)N4CCOCC4)cc3)cc(C3CCC(O)CC3)n2n1 (stereo not drawn) [Compound 181] | ≤ 100 nM | ≤ 100 nM | – | ++ (“++” represents a ratio of between 10 and 100)
COCC(C)Nc1ncc2c(-c3ccc(C(C)N4CCOCC4)cc3)cc(C3CCC(O)CC3)n2n1 (stereo not drawn) [Compound 182] | ≤ 100 nM | ≤ 100 nM | – | ++ (“++” represents a ratio of between 10 and 100)
